Experimental data: patent US9446018B2, “Pharmaceutical composition for treating or preventing angina or myocardial infarction induced by myocardial ischemia” (SINPHAR TIAN-LI PHARMACEUTICAL CO., LTD. (HANGZHOU), priority 2009, dated 2016)

Tested on: myocardial cells (death induced from partial myocardial ischemia)
Test: Embodiment 1: myocardial infarct size after 1 h ligature of the left descending coronary branch and 1 h reperfusion (TTC staining)
Type: in vivo, Crl:CD(SD) SPF rats

| Structure (SMILES) | effect on myocardial infarct size compared with the blank control group (in words) (Embodiment 1, Table 1, STA-2 alone in high dose or in low dose) | Myocardial Infarction Percentage (%) (rat, tube-fed once daily 7 days + IP 1/3 dose after ligation, isosorbide dinitrate 18.75 mg/Kg, STA-2 low dose 250 mg/Kg, Aspirin 8.3 mg/Kg, mean ± SEM) | effect on myocardial infarct size compared with the blank control group (in words) (rat, in vivo) |
| --- | --- | --- | --- |
| CC(=O)Oc1ccccc1C(=O)O [Aspirin] | did not produce any statistically meaningful effects | 14.75 ± 2.8 |  |
| O=[N+]([O-])O[C@H]1CO[C@H]2[C@@H]1OC[C@H]2O[N+](=O)[O-] [isosorbide dinitrate] |  |  | significant reduction in myocardial infarct size |
